Data: ChEMBL document CHEMBL1134128, “Rational design of a new series of pronucleotide” (Bioorg Med Chem Lett, 2001)

Key:
CEM-SS [1] = assay: Cytotoxic concentration to inhibit HIV replication in TK CEM-SS cell line and the value is represented as CC50; assay type: functional; settings: Homo sapiens
[2] = Partition coefficient (logP); assay type: physicochemical; settings: octanol/water
[3] = Half life were determined in CEM-SS cell extract in decomposition step 1; assay type: ADME; settings: human
[4] = Half life in culture medium containing 10% of heat inactivated foetal calf serum; assay type: ADME, cell-free, Bos taurus; settings: cattle
CEM-SS [5] = assay: Effective concentration to inhibit HIV replication in TK CEM-SS cell line and the value is represented as EC50; assay type: functional, cell-based; settings: Homo sapiens
[6] = Half life in human serum; assay type: ADME, cell-free
[7] = The pKa value was reported; assay type: physicochemical
CEM-SS [8] = assay: Effective concentration to inhibit HIV replication in TK CEM-SS cell line; assay type: functional, cell-based; settings: Homo sapiens
CEM-SS [9] = assay: Cytotoxic concentration to inhibit HIV replication in TK CEM-SS cell line; assay type: functional; settings: Homo sapiens

| SMILES | logP [2] | half-life [3] | half-life [4] | half-life [6] | pKa [7] | EC50 (CEM-SS [8]) | CC50 (CEM-SS [1]) | EC50 (CEM-SS [5]) | CC50 (CEM-SS [9]) |
| --- | --- | --- | --- | --- | --- | --- | --- | --- | --- |
| Cc1cn(C2CC(N=[N+]=[N-])C(COP(=O)(O)N3CCOCC3)O2)c(=O)[nH]c1=O (centres undefined) | 1.86 | 2.1 h | 385 h | 23 h | 8.36 | – | > 100 µM | 2 µM | – |
| CCCCN(CCCC)P(=O)(O)OCC1OC(n2cc(C)c(=O)[nH]c2=O)CC1N=[N+]=[N-] (centres undefined) | 4 | 0.96 h | 136 h | 23 h | 11.2 | – | > 10 µM | > 10 µM | – |
| Cc1cn(C2CC(N=[N+]=[N-])C(COP(=O)(O)N3CCCCC3)O2)c(=O)[nH]c1=O (centres undefined) | 2.77 | 1.2 h | – | – | 11.1 | – | > 100 µM | 5.2 µM | – |
| CCCCNP(=O)(O)OCC1OC(n2cc(C)c(=O)[nH]c2=O)CC1N=[N+]=[N-] (centres undefined) | 2.67 | 1.3 h | 165 h | 29 h | 10.6 | – | > 100 µM | 1.2 µM | – |
| Cc1cn([C@H]2C[C@H](N=[N+]=[N-])[C@@H](CO)O2)c(=O)[nH]c1=O [ZIDOVUDINE] | – | – | – | – | – | > 100 µM | – | – | > 100 µM |

Continued, in another order:

| logP [2] | half-life [3] | half-life [4] | half-life [6] | pKa [7] | EC50 (CEM-SS [8]) | SMILES | CC50 (CEM-SS [1]) | EC50 (CEM-SS [5]) | CC50 (CEM-SS [9]) |
| --- | --- | --- | --- | --- | --- | --- | --- | --- | --- |
| 2.45 | 1.2 h | 350 h | 23 h | 10.4 | – | Cc1cn(C2CC(N=[N+]=[N-])C(COP(=O)(NC(C)(C)C)OCCSC(=O)C(C)(C)C)O2)c(=O)[nH]c1=O (centres undefined) | > 100 µM | 1.5 µM | – |
| 1.91 | 1.2 h | 200 h | 10 h | 10.6 | 0.63 µM | Cc1cn(C2CC(N=[N+]=[N-])C(COP(=O)(NC(C)C)OCCSC(=O)C(C)(C)C)O2)c(=O)[nH]c1=O (centres undefined) | – | – | > 100 µM |
| 2.55 | 1.4 h | 100 h | 23 h | 4.68 | – | Cc1cn(C2CC(N=[N+]=[N-])C(COP(=O)(Nc3ccccc3)OCCSC(=O)C(C)(C)C)O2)c(=O)[nH]c1=O (centres undefined) | > 10 µM | > 10 µM | – |
